For 14 compounds, inhibition and IC50 results are on record in ChEMBL document CHEMBL4219249, “Discovery of d-amino acid oxidase inhibitors based on virtual screening against the lid-open enzyme conformation” (Bioorg Med Chem Lett, 2018).

Assay [1] concerns the target T1, D-amino-acid oxidase (Homo sapiens, UniProt P14920). Nature of the assay: Inhibition of human DAAO at 20 uM using D-kynurenine as substrate relative to control.
Target sequence in this assay (P14920 whole entry, looked up): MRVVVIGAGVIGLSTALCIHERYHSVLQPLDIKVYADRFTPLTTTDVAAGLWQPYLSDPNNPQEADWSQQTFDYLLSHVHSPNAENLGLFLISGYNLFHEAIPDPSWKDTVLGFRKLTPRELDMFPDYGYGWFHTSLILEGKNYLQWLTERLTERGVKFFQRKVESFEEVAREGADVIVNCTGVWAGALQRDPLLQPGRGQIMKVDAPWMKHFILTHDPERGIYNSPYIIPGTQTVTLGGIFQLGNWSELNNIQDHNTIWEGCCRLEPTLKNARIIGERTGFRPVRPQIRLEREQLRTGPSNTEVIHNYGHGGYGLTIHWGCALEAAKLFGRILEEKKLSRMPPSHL
Assay [2] addresses T1, D-amino-acid oxidase. As to the kind of experiment: Inhibition of human DAAO using D-kynurenine as substrate.
Target sequence in this assay (P14920 whole entry): as the sequence (P14920 whole entry, looked up) above

`O=C(O)CNC(=O)c1cc([N+](=O)[O-])c[nH]1`: in assay [1], the inhibition amounted to 35%.
In turn, `CN(CC(=O)O)C(=O)c1cc(N(C)C(=O)c2cc(Br)c(Br)[nH]2)c[nH]1` yielded an inhibition in assay [1] of 0%.
Regarding `O=C(O)CNC(=O)c1cc(NC(=O)c2cc(Br)c[nH]2)c[nH]1`, the concentration for half-maximal inhibition (IC50) in assay [2] worked out at 6.7 µM. Also, the inhibition in assay [1] was 100%.
Take `O=C(O)CNC(=O)c1cc(NC(=O)c2cccnc2)c[nH]1`: the inhibition in assay [1] amounted to 45%.
`O=C(O)CNC(=O)c1cc(NC(=O)c2cc(Br)c(Br)[nH]2)c[nH]1`: the midpoint of inhibition in assay [2], the IC50, lay at 0.39 µM. Also, in assay [1], the inhibition is 100%.
In the same order, the values of `CN(CC(=O)O)C(=O)c1cc(NC(=O)c2cc(Br)c(Br)[nH]2)c[nH]1` are 0.49 µM and 100%.
Turning to `O=C(O)CNC(=O)c1cc(NC(=O)c2ccccn2)c[nH]1`, in assay [1], the inhibition worked out at 18%.
Consider `CN(C(=O)c1cc(Br)c(Br)[nH]1)c1c[nH]c(C(=O)NCC(=O)O)c1`, for which, in assay [1], the inhibition came to 0%.
The same measure, in the same setting: as for `CC(=O)Nc1c[nH]c(C(=O)NCC(=O)O)c1`, the figure is 39%; as for `O=C(O)CNC(=O)c1cc(NC(=O)c2ccc([N+](=O)[O-])[nH]2)c[nH]1`, 33%; as for `O=C(O)CNC(=O)c1cc(NC(=O)c2cc3ccccc3[nH]2)c[nH]1`, 8%.
For the compound `Cn1cc(NC(=O)c2cc(Br)c(Br)[nH]2)cc1C(=O)NCC(=O)O`, the inhibition in assay [1] turned out to be 32%.
The compound `Cc1[nH]c(C(=O)Nc2c[nH]c(C(=O)NCC(=O)O)c2)c(Cl)c1Cl` returned a 50% inhibitory concentration (IC50) in assay [2] of 8.8 µM. In assay [1], this compound showed an inhibition of 100%.
The compound `O=C(O)CNC(=O)c1cc(NC(=O)c2cc(Cl)c(Cl)[nH]2)c[nH]1` came in with an IC50 in assay [2] of 5.2 µM. Besides, the inhibition in assay [1] stood at 100%.
